Data set [1] has as its target T1, ATP-dependent translocase ABCB1 (Homo sapiens, UniProt P08183). The data set can be described thus: TP_TRANSPORTER: inhibition of Rhodamine 123 transepithelial transport (basal to apical) (R123: 13 uM, Saquinavir: 20uM) in HCT-8 cells. The format is functional, cell-based. The settings on record: hct-8, 20 µM.
The target in data set [2] is T1, ATP-dependent translocase ABCB1. The data set can be described thus: TP_TRANSPORTER: transepithelial transport (basal to apical) in HCT-8 cells. The format is functional, cell-based.

T1 sequence (P08183 whole entry): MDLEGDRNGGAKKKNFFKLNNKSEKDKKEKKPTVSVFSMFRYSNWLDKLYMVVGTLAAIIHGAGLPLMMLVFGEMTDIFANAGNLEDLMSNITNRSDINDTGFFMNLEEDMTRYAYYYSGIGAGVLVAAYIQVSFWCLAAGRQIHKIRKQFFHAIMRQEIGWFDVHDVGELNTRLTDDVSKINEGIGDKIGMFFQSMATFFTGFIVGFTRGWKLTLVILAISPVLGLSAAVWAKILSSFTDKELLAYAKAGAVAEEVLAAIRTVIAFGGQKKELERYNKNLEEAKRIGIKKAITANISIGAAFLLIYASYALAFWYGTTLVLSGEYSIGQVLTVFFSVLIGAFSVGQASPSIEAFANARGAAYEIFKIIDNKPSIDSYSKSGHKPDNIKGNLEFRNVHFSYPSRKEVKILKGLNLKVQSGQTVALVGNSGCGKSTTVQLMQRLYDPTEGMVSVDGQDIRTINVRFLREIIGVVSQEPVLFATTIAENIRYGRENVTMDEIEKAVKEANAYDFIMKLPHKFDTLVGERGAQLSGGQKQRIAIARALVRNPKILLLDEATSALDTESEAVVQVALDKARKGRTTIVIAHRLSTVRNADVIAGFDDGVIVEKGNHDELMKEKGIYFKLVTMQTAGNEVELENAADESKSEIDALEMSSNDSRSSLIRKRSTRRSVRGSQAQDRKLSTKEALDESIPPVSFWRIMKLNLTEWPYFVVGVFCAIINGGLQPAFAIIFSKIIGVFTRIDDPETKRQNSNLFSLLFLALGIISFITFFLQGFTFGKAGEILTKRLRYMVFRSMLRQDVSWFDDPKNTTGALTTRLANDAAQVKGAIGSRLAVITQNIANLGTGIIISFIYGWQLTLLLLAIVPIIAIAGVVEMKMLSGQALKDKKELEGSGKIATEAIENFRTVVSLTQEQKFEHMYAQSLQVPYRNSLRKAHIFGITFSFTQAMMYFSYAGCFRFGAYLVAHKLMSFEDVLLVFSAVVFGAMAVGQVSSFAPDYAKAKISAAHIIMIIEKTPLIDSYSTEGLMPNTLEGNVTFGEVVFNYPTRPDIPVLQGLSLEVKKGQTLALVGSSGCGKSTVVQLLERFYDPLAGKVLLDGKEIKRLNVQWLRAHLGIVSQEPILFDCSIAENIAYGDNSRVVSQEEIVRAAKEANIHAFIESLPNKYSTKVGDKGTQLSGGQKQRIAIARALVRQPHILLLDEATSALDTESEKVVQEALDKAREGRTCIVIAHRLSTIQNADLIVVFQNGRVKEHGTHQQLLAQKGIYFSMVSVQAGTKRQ

In the case of `CC(C)(C)NC(=O)[C@@H]1C[C@@H]2CCCC[C@@H]2CN1C[C@@H](O)[C@H](Cc1ccccc1)NC(=O)[C@H](CC(N)=O)NC(=O)c1ccc2ccccc2n1`, the Activity entry was “inhibitor [(at a rough estimate) 45 % of control]” in data set [1] and “substrate [+]” in data set [2]. Regarding `COC(=O)c1ccccc1-c1c2ccc(=N)cc-2oc2cc(N)ccc12.Cl` [RHODAMINE123], in data set [2], the Activity entry was “substrate [+]”.

The values above are taken from ChEMBL document CHEMBL2074386, “Saquinavir, an HIV protease inhibitor, is transported by P-glycoprotein” (J Pharmacol Exp Ther, 1998).
